Measurements from patent US20220362153A1, “COMPOSITIONS AND METHODS FOR PULMONARY SURFACTANT-BIOMIMETIC NANOPARTICLES” (priority 2019, published 2022).

System: NC09 H1N1 virus
Format: in vivo
Settings: unimmunized mice, 20 mg/kg/day

CCOC(=O)C1=C[C@@H](OC(CC)CC)[C@H](NC(C)=O)[C@@H](N)C1 [oseltamivir]
control of NC09 viral infection: but not NC09
